We go through 16 compounds from patent US6936629B2, “Compounds and methods for the treatment or prevention of flavivirus infections” (ViroChem Pharma Inc., priority 2001, dated 2005).

For the experiment, the target named is HCV RNA-dependent RNA polymerase (NS5B protein) (Hepatitis C virus genotype 1b, UniProt P26663). Kind of experiment: In vitro HCV RNA-dependent RNA polymerase assay (Assay 1, polyA/oligo dT, 32P-UTP incorporation). Type of experiment: biochemical. Particulars: purified recombinant HCV NS5B, homopolymeric template/primer polyA/oligo dT; read-out: RNA pol Assay1 IC50. As for the experimental part: Compounds were evaluated using an in vitro polymerase assay containing purified recombinant HCV RNA-dependent RNA polymerase (NS5B protein). HCV NS5B was expressed in insect cells using a recombinant baculovirus as vector. The experimental procedures used for the cloning, expression and purification of the HCV NS5B protein are described below. Follows, are details of the RNA-dependent RNA polymerase assays used to test the compounds.
HCV RNA-dependent RNA polymerase (NS5B protein), sequence (P26663 2420-3010 limits assumed): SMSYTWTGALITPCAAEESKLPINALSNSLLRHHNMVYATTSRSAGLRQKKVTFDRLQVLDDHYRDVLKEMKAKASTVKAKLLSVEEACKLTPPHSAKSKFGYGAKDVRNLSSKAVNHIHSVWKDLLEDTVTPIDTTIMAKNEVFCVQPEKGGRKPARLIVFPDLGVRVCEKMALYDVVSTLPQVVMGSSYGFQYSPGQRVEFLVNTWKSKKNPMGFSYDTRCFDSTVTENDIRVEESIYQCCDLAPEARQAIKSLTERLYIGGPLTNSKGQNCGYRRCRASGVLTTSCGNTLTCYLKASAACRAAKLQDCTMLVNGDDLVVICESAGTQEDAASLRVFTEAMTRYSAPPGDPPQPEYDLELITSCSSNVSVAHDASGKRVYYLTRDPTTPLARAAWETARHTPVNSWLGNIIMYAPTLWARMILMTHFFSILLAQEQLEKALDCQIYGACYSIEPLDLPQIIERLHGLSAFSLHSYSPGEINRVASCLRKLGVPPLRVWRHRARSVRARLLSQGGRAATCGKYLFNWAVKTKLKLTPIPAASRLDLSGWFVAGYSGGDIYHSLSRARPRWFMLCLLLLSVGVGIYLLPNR
The cDNA encoding the entire NS5B protein of HCV-Bk strain, genotype 1b, was amplified by PCR using the primers NS5Nhe5′ (5′-[…]-3′) (SEQ ID NO: 1) and XhoNS53′ (5′-[…]-3′) (SEQ ID NO: 2) and the plasmid pCD 3.8-9.4 as template (Tomei et al, 1993). NS5Nhe5′ and XhoNS53′ contain two NheI and XhoI sites (underlined sequences), respectively, at their 5′ end. The amplified DNA fragment was cloned in the bacterial expression plasmid pET-21b (Novagen) between the restriction sites NheI and XhoI, to generate the plasmid pET/NS5B. This plasmid was later used as template to […] the NS5B coding region, using the primers NS5B-H9 (5′-[…]-3′) (SEQ ID NO: 3) and NS5B-R4 (5′-[…]-3′) (SEQ ID NO: 4). NS5B-H9 spans a region of 15 nucleotides in the plasmid pET-21b followed by the translation initiation codon (ATG) and […] corresponding to the 5′ end of the NS5B coding region (nt. 7590-7607 in the HCV sequence with the accession number M58335) . NS5B-R4 contains two BamHI sites (underlined) followed by 18 nucleotides corresponding to the region around the stop codon in the HCV genome (nt. 9365-9347). The amplified sequence, of 1.8 kb, was digested with NheI and BamHI and ligated to a predigested pBlueBacII plasmid (Invitrogen) . The resulting recombinant plasmid was designated pBac/NS5B. Sf9 cells were co-transfected with 3 μg of pBac/NS5B, together with 1 μg of linearized baculovirus DNA (Invitrogen), as described in the manufacturer's protocol. Following two rounds of plaque purification, an NS5B-recombinant baculovirus, BacNS5B, was isolated. The presence of the recombinant NS5B protein was determined by western blot analysis (Harlow and Lane, 1988) of BacNS5B-infected Sf9 cells, using a rabbit polyclonal antiserum (anti-NS5B) raised against a His-tagged version of the NS5B protein expressed in E. coil. Infections of Sf9 cells with this plaque purified virus were performed in one-liter spinner flasks at a cell density of 1.2×10^6 cells/ml and a multiplicity of infection of 5.
Sf9 cells were infected as described above. Sixty hours post-infection, cells were harvested then washed twice with phosphate buffer saline (PBS). Total proteins were solubilized as described in Lohmann et al. (1997) with some modifications. In brief, proteins were extracted in three steps, S1, S2, S3, using lysis buffers (LB) I, LB II and LB III (Lohmann et al, 1997). The composition of LBII was modified to contain 0.1% triton X-100 and 150 mM NaCl to reduce the amount of solubilized NS5B protein at this step. In addition, sonication of cell extracts was avoided throughout the protocol to preserve the integrity of the protein structure.
Soluble NS5B protein in the S3 fraction was diluted to lower the NaCl concentration to 300 mM, then it incubated batchwise with DEAE sepharose beads (Amersham-Pharmacia) for 2 hrs at 4° C., as described by Behrens et al. (1996). Unbound material was cleared by centrifugation for 15 min at 4° C., at 25000 rpm using a SW41 rotor (Beckman). The supernatant was further diluted to lower the NaCl concentration to 200 mM and subsequently loaded, with a flow rate of 1 ml/min, on a 5 ml HiTrap® heparin column (Amersham-Pharmacia) connected to an FPLC® system (Amersham-Pharmacia). Bound proteins were eluted in 1 ml fractions, using a continuous NaCl gradient of 0.2 to 1 M, over a 25 ml volume. […]
The term IC50 denotes the point on the concentration scale where inhibition reaches its midpoint. For `Cc1ccc(C(=O)N(C)c2nc(-c3ccccc3)sc2C(=O)O)cc1` [Compound #1, 4-[Methyl-(4-methyl-benzoyl)-amino]-2-phenyl-thiazole-5-carboxylic acid], the half-maximal inhibitory concentration (IC50) is below 5 µM.

For the compound `CN(C(=O)c1ccc(Cl)cc1Cl)c1nc(-c2ccccc2)sc1C(=O)O` [Compound #2, 4-[(2,4-Dichloro-benzoyl)-methyl-amino]-2-phenyl-thiazole-5-carboxylic acid], the IC50 was below 5 µM. Take `CC(C)N(C(=O)c1ccc(Cl)cc1Cl)c1nc(-c2ccccc2)sc1C(=O)O` [Compound #3, 4-[(2,4-Dichloro-benzoyl)-isopropyl-amino]-2-phenyl-thiazole-5-carboxylic acid]: the concentration for half-maximal inhibition (IC50) was below 5 µM.

As for `CCN(C(=O)c1ccc(Cl)cc1Cl)c1nc(-c2ccccc2)sc1C(=O)O` [Compound #4, 4-[(2,4-Dichloro-benzoyl)-ethyl-amino]-2-phenyl-thiazole-5-carboxylic acid], the concentration for half-maximal inhibition (IC50) is below 5 µM. Then `Cc1ccccc1S(=O)(=O)Nc1nc(-c2ccccc2)sc1C(=O)O` [Compound #5, 2-Phenyl-4-(toluene-2-sulfonylamino)-thiazole-5-carboxylic acid], with 5 to 20 µM; and `Cc1ccc(C(=O)N(c2nc(-c3ccccc3)sc2C(=O)O)C(C)C)cc1` [Compound #6, 4-[Isopropyl-(4-methyl-benzoyl)-amino]-2-phenyl-thiazole-5-carboxylic acid], with below 5 µM; and `O=C(Nc1nc(-c2ccccc2)sc1C(=O)O)c1ccc(Cl)cc1` [Compound #7, 4-(4-Chloro-benzoylamino)-2-phenyl-thiazole-5-carboxylic acid], with above 20 µM. For `Cc1ccc(C(=O)Nc2nc(-c3ccccc3)sc2C(=O)O)c(C)c1` [Compound #8, 4-(2,4-Dimethyl-benzoylamino)-2-phenyl-thiazole-5-carboxylic acid], the IC50 was above 20 µM.

For `Cc1ccc(S(=O)(=O)Nc2nc(-c3ccccc3)sc2C(=O)O)c(C)c1` [Compound #9, 4-(2,4-Dimethyl-benzenesulfonylamino)-2-phenyl-thiazole-5-carboxylic acid], the IC50 was 5 to 20 µM.

As to `Cc1ccc(S(=O)(=O)Nc2nc(-c3ccccc3)sc2C(=O)O)cc1` [Compound #10, 2-Phenyl-4-(toluene-4-sulfonylamino)-thiazole-5-carboxylic acid], the IC50 was above 20 µM. Then `O=C(Nc1nc(-c2ccccc2)sc1C(=O)O)c1ccc(Cl)cc1Cl` [Compound #11, 4-(2,4-Dichloro-benzoylamino)-2-phenyl-thiazole-5-carboxylic acid], with 5 to 20 µM; and `Cc1cccc(C(=O)Nc2nc(-c3ccccc3)sc2C(=O)O)c1` [Compound #12, 4-(3-Methyl-benzoylamino)-2-phenyl-thiazole-5-carboxylic acid], with above 20 µM; and `CN(C(=O)c1ccccc1Cl)c1nc(-c2ccccc2)sc1C(=O)O` [Compound #13, 4-[(2-Chloro-benzoyl)-methyl-amino]-2-phenyl-thiazole-5-carboxylic acid], with 5 to 20 µM. With `CN(C(=O)c1ccc(Cl)cc1)c1nc(-c2ccccc2)sc1C(=O)O` [Compound #14, 4-[(4-Chloro-benzoyl)-methyl-amino]-2-phenyl-thiazole-5-carboxylic acid], the IC50 was below 5 µM.

Turning to `O=C(Nc1nc(-c2ccccc2)sc1C(=O)O)c1ccc(Cl)cc1` [Compound #15], the IC50 lay in the range of 5 to 20 µM.

On to `Cc1ccc(C(=O)N(C)c2nc(N3CCOCC3)sc2C(=O)O)c(C)c1` [Compound #16, 4-[(2,4-DIMETHYL-BENZOYL)-METHYL-AMINO]-2-MORPHOLIN-4-YL-THIAZOLE-5-CARBOXYLIC ACID], for which the IC50 was 5 to 20 µM.
